Entries after “also recorded” stand apart in the source; their conditions may differ.
Legend:
[1] = system: MDA231 and SUM159 parental and Paclitaxel-resistant sublines (PR); assay: Cell viability of parental and Paclitaxel-resistant sublines, combination treatment; format: cell-based
Method: (§1) For cell proliferation assay, the optimal cell seeding was first determined empirically for all cell lines by examining the growth of a wide range of seeding densities in a 96-well format to identify conditions that permitted proliferation for 7 days. Cells were then plated at the optimal seeding density 24 h before siRNA or drug treatment in triplicate. Plates were incubated for 7 days at 37° C. in 5% CO2. Cells were then lysed with CellTiter-Glo (CTG) (Promega, Madison, Wis.) and chemiluminescent signal was detected with a microplate reader on Day 0, 1, 3, 5 and 7. In addition, an untreated plate of cells was harvested at the time of drug or siRNA addition (T0) to quantify the starting number of cells. CTG values obtained after the 7 day treatment were expressed as percentages of the T0 value and plotted against time of treatment.

[2] = system: BT549, MB436, MB468, MDA231 and MDA231-LM2 cells; assay: 3D Matrigel growth of TNBC cells; format: cell-based; settings: 5 μM IRAK-inh
Method: 8-well chamber slides (Falcon, cat: 354656, Falcon) were precoated with 7.6 mg/mL growth factor-reduced Matrigel (Falcon, cat: 354230, Falcon) for 30 min at 37° C. Approximately 5×10^3 for MDA231, 1×10^4 for MB436 and MB468, 1.5×10^4 cells for BT549 with indicated treatments were seeded in each well with DMEM containing 10% (vol/vol) FBS and 150 μg/mL Matrigel. Medium were replenished every 3 days and cell growth was monitored every 3 days by imaging over duration of 10-14 days.

[3] = target: IRAK1 (Homo sapiens, UniProt P51617); settings: recently shown in Myelodysplastic Syndrome (ref 20); cited from earlier work
Sequence of IRAK1 (P51617 whole entry, species assumed): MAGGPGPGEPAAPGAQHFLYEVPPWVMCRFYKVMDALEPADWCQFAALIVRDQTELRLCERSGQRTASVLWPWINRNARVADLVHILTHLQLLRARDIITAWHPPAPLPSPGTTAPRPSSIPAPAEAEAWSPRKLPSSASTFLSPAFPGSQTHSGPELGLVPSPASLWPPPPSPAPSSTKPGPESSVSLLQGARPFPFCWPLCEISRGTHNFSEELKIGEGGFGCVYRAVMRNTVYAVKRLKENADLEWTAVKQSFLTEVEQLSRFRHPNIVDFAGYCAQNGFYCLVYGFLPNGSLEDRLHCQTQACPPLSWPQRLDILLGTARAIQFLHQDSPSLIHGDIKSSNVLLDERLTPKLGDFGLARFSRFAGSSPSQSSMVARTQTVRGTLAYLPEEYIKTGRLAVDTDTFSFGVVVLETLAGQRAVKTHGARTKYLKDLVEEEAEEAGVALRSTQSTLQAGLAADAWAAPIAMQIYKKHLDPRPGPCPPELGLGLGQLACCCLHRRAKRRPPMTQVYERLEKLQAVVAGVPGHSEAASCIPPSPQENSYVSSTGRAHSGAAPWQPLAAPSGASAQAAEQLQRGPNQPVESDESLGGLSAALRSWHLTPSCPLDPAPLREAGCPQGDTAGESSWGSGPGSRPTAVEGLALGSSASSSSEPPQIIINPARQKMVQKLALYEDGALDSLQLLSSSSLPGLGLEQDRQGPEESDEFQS

[4] = system: non-cancerous MCF10A and HMLE cells; assay: 3D Matrigel growth of non-cancerous cells; format: cell-based; settings: 5 uM IRAK-inh, one week
[5] = system: MDA231-LM2 cells; assay: Mammary fat pad MDA231-LM2 xenograft, lung metastasis by bioluminescence imaging; format: in vivo, NOD/SCID mice; settings: for lung metastasis: IRAK-inh 4 mg/kg, qd, ip, 14 days, started 7 days before primary tumor removal
[6] = system: BT549, MB436, MB468, MDA231 and MDA231-LM2 cells; assay: Mammosphere formation assay; format: cell-based; settings: for mammosphere growth: 5 μM IRAK-inh; for mammosphere forming capacity after Paclitaxel pretreatment: MDA231 cells, 10 nM Paclitaxel 4 days, remaining viable cells
Method: Active growing cells were treated with 0.05% trypsin for 10 minutes then passed through […] cell strainer to achieve single cell suspension. Cells were plated (MDA231: 1×10^4; MB436: 3×10^4; MB468: 4×10^4 cells/well, BT549: 3×10^4, MDA231-LM2: 3×10^4) seeded in 6-well ultra-low attachment plates (Corning, Corning, N.Y., cat: CLS3471) in Mammocult medium (Stem cell Technologies, Vancouver, BC, Canada), supplemented with fresh hydrocortisone (0.51 μg/ml) and heparin (1:500). Tumorspheres were cultured for 7 days prior to being counted and photographed. Imaging and quantification were done using GelCount™ apparatus and associated software (Oxford Optronix, Abingdon, UK). For serial passages of tumorsphere formation assay, the spheres were collected by gentle centrifugation, dissociated to single cells for passaging tumorspheres every 14 days and counted. Tumorspheres were photographed and quantified 7-12 days later using a GelCount Colony Counter after staining with INT.

[7] = system: p38-MCL-1 signaling in SUM159-PR cells; assay: Western blot of p-p38, MCL-1 and cleaved PARP; format: cell-based; settings: inhibitor with Paclitaxel
Method: (§2) Western Blotting was performed as described previously (8). IRAK1 (Cat no: #4359), IRAK4 (Cat no.: 4363), cleaved PARP (Cat no.: #9541), p38 MAPK (Cat no.: #9212), phospho-p38 MAPK (T180/Y182) (Cat no.: #9211), phospho-NF-KappaB p65 (S536) (Cat no. #3031) were purchased from Cell Signaling (Danvers, Mass.). Phospho-IRAK1 (T209) antibody was purchased from Assay Biotech (Sunnyvale, Calif., Cat no.: A1074) and phospho-IRAK1 (S376) antibody from Genetex (Irvine, Calif., Cat no.: GTX50994). MCL-1 antibody was purchased from Santa Cruz Biotechnology (Santa Cruz, Calif., Cat no.: sc-819). Actin was purchased from Sigma-Aldrich (St Louis, Mo., Cat no.: A5441). Detection of bands was performed with the ChemiDoc™ MP Imaging Systems (Bio-Rad, Hercules, Calif.) and bands were subjected to further densitometric analysis with Image Lab software (Version 4.1, Bio-rad, Hercules, Calif.).

[8] = target: T1, p-IRAK1 (T209) (Homo sapiens, UniProt P51617); assay: Western blot of p-IRAK1 in immunoprecipitated IRAK1; format: cell-based; settings: for induction of p-IRAK1 by chemotherapeutic agent: MDA231 (also SUM159) cells, PTX 5 nM, ADR 2 μM, Cisplatin 5 μM, up to 48 hours
T1 construct: The whole cell lysate were extracted with the NE-PER kit (Pierce Biotechnology) and subjected to immunoprecipitation using 2 μg total-IRAK1 antibody; endogenous in cells; host or cells: TNBC cell lines (BT549, MB436, MB468, MDA231, MDA231-LM2, SUM159 and paclitaxel-resistant sublines)
T1 sequence (P51617 whole entry): as the sequence (P51617 whole entry, species assumed) above
Method: as §2
Co-IP was performed as described previously (9). The whole cell lysate were extracted with the NE-PER kit (Pierce Biotechnology) and subjected to immunoprecipitation using 2 μg total-IRAK1 antibody (Santa Cruz Biotech, Santa Cruz, Calif., Cat no.: sc-7883). The precipitated protein complex was captured using protein A-Agarose beads (Roche) and extensively washed with the washing buffer (50 mM Tris-HCl, 150 mM NaCl, 0.1% triton). The precipitated proteins were dissolved in SDS sample buffer along with 3 mM DTT, and subjected to immunoblotting analysis. Phospho-IRAK1 (T209) (Assay Biotechnology, Sunnyvale, Calif., Cat no.: A1074) was used for detection.

[9] = system: IL-6, IL-8 and CXCL1 secretion; assay: ELISA of cytokine secretion; format: cell-based
Method: IL-6, IL-8 and CXCL1 levels were assessed using ELISA assay kit (Boster Bio, Pleasanton, Calif.). Supernates of the mammosphere formation assay were collected after 10 days in culture. 1:50 dilution was performed on the supernates before quantifying the amount of cytokines according to the manufacturer's protocol. For cytokine antibody array, supernates collected from the NS or shIRAK1 MB436 mammospheres after 10 days in culture were used directly without further dilution. Semi-quantitative detection of 120 human cytokines and chemokines in the supernates were performed using the RayBio® C-series Human Cytokine Antibody Array C1000 (RayBiotech, Inc., Norcross, GS, Cat no.: #AAH-CYT-1000-2) as per manufacturer's instructions. Detection of dots was performed with the ChemiDoc™ MP Imaging Systems (Bio-Rad, Hercules, Calif.) and the intensity of dots were quantified by densitometric analysis using the ImageJ software. The raw numerical densitometry data is extracted and subjected to background subtraction before normalizing the signal for each cytokines against the Positive Control signals in each cytokine array.

[10] = system: SUM159-PR and MDA231-PR cells; assay: Apoptosis by FACS analysis of Sub-G1 cells; format: cell-based; settings: Paclitaxel-resistant cells
Method: Cell cycle analysis was done by DNA content quantification to quantify the sub-G1 population which is reflective of the extent of cell death. Briefly, the cells were fixed with 70% ethanol and stained with propidium iodide (50 μg/ml) staining. The stained cells were analyzed by FACScalibur (BD Bioscience) and quantified by using CellQuest software (BD bioscience).

[11] = system: IL1B, IL6 and IL8 mRNAs in MDA231 cells; assay: qRT-PCR of cytokine mRNAs after chemotherapy; format: cell-based; settings: 5 nM PTX, VCR 3 days
Method: Total RNA was isolated by using Qiazol (Life technologies, Carlsbad, Calif.) and purified with the RNeasy Mini Kit (Qiagen, Valencia, Calif.). Reverse transcription and quantitative PCR assays were performed using High Capacity cDNA Archive kit and KAPA SyBr Fast qPCR kit (KAPA Biosystems, Wilmington, Mass.). For quantification of mRNA levels, 18S level was used as an internal control. All reactions were analyzed in an Applied Biosystems PRISM 7500 Fast Real-Time PCR system in 96-well plate format.

[12] = system: MDA231-PR cells; assay: Cell viability IC50 curves, sensitivity of paclitaxel-resistant cells to agents; format: cell-based
From the text: FIG. 17. (a). IC50 curves showing cell viability after treatment with paclitaxel (PTX), vincristine (VCR), gemcitabine, doxorubicin (ADR), cisplatin, 5-fluorouracil (5-FU) and pacritinib in parental and pacitaxel-treated MDA-MB-231 (MDA231-PR) cells. (b). Graphical representation of relative sensitivities. (c).
as §1

[13] = system: ALDH-positive cell population; assay: ALDEFLUOR assay; format: cell-based; settings: after paclitaxel treatment
Method: ALLEFLUOR assay was performed using the manufacturer's recommended protocol (ALDEFLUOR kit, Stemcell Technologies; catalogue number: #01700). In brief, one million single-cell suspensions were centrifuged and resuspended in ALDEFLUOR assay buffer supplied in the kit. Each sample cells were incubated with or without an ALDH-specific inhibitor 15 mM diethylaminobenzaldehyde in the presence of 0.15 mM ALDH substrate. ALDEFLUOR stainings were detected using fluorescein isothiocyanate channel of a FACSCalibur Flow Cytometry System (BD Biosciences) after 25 min incubation at 37° C. Diethylaminobenzaldehyde inhibitor control sample was used as sorting gate reflecting background fluorescence levels for each cell lines.

[14] = system: SUM159PR or MDA231PR; assay: Acquired Paclitaxel resistance of stepwise-selected resistant sublines; format: cell-based; settings: SUM159PR kept in 1 μM, MDA231PR in 75 nM Paclitaxel
Method: (§3) To establish the Paclitaxel acquired resistant TNBC cell lines, both SUM159PT and MDA231 cells were used. […] During these treatment cycles, only cells with a high intrinsic resistance or those which had acquired resistance to the drug survived. The cycle was further repeated until the stable resistant cell line (SUM159PR or MDA231PR) SUM159PR cells were stably maintained in 1 μM Paclitaxel and MDA231 in 75 nM of Paclitaxel with complete medium, making them at least ˜1000-fold more resistant than their parental cell lines.

[15] = system: SUM159PT; assay: Paclitaxel EC50 in parental SUM159PT cells; format: cell-based; settings: Homo sapiens, SUM-159-PT, read-out: intrinsic EC50 to Paclitaxel
Method: as §3, §1

SMILES: O=C(Nc1nc2ccccc2n1CCN1CCOCC1)c1cccc([N+](=O)[O-])c1 [IRAK-inh]
- cell viability, combined with sub-toxic Paclitaxel ([1]; both Paclitaxel-resistant cell lines (MDA231-PR, SUM159-PR), 5 μM IRAK-inh): dramatic loss of cell viability
- cell death in combination with paclitaxel ([1]; paclitaxel-resistant MDA231 cells, IRAK-inh 5 μM): dramatic cell death
- cell viability, inhibitor on its own ([1]; paclitaxel-resistant MDA231 cells, IRAK-inh 5 μM alone): no effect
- 3D Matrigel growth ([2]; BT549, MB436 and MB468 cells): marked inhibition
- 3D Matrigel growth ([2]; MDA231-LM2 cells, 7 days): impaired
- activity against IRAK1 [3]: potent activity against IRAK1
- 3D Matrigel growth / morphology [4]: no effect
- lung metastasis ([5]; listed as IRAK1-inh): markedly reduced
- lung metastasis ([5]; listed as IRAK1-inn): effectively blocked
- survival of mice carrying TNBC metastasis ([5]; IRAK-inh treatment): extended the survival
- mammosphere growth ([6]; BT549, MB436 and MB468 cells): marked inhibition
- mammosphere growth ([6]; MDA231-LM2 cells, 7 days): impaired
- PARP cleavage [7]: increased PARP cleavage
- p-p38 and MCL-1 expression [7]: decrease
- p-IRAK1 in TNBC cells ([8]; IRAK-inh 5 μM): effectively abolished the p-IRAK1
- IL-1β-induced p-IRAK1 ([8]; MB436 cells, recombinant IL-1β, IRAK-inh 5 uM): abrogated
- IL-8 and CXCL1 secretion ([9]; IRAK-inh-sensitive TNBC cells, 5 μM IRAK-inh): strong reduction
- secretion of IL-6, IL-8 and CXCL1 ([9]; Paclitaxel-resistant cells, IRAK1-inh plus Paclitaxel): reduced secretion
- apoptosis, combined with Paclitaxel [10]: massive apoptosis

SMILES: CC(=O)O[C@H]1C(=O)[C@@]2(C)[C@H]([C@H](OC(=O)c3ccccc3)[C@]3(O)C[C@H](OC(=O)[C@H](O)[C@@H](NC(=O)c4ccccc4)c4ccccc4)C(C)=C1C3(C)C)[C@]1(OC(C)=O)CO[C@@H]1C[C@@H]2O [Paclitaxel]
- expression of IL1B, IL6 and IL8 mRNAs [11]: induced
- mammosphere forming capacity after Paclitaxel pretreatment [6]: increased mammosphere forming capacity
- mammosphere forming capacity after Paclitaxel pretreatment ([6]; listed as paclitaxel): potentiated mammosphere formation
- shift of the IC50 curve ([12]; MDA231-PR versus parental MDA-MB-231): marked right shift
- sensitivity of paclitaxel-resistant cells to agent ([12]; paclitaxel-treated/resistant cells over-expressing p-IRAK1): markedly resistant; also recorded: no longer susceptible; also recorded: no longer responsive
- ALDH-positive cell population [13]: expansion of the ALDH-positive cell population
- induction of p-IRAK1 by chemotherapeutic agent [8]: marked induction
- induction of p-IRAK1 by chemotherapeutic agent ([8]; listed as paclitaxel): marked induction
- IRAK1 signaling activated by chemotherapeutic agents ([8]; discussion statement): activated
- fold more resistant than parental cell lines [14]: ≥ 1000 fold
- EC50 [15]: 3.88 nM
